{"source": "patent US6726928B2", "about": "“Process for preparing solid dosage forms for unpalatable pharmaceuticals” (R.P. Scherer Technologies, Inc., priority 1994, dated 2004)", "experiment": "pH dependence of Piroxicam solubility", "type": "physicochemical", "description": "The solubility of weak acids and weak bases may be adjusted by pH control. Increasing the pH of a solution can decrease solubility of a weak base, whereas the solubility of a weak acid can be […] by a pH decrease. The relative levels of weak acid or weak base added to the drug can be calculated with the knowledge of the Henderson-Hasselbalch equation, and by calculation of the pKa of the drug concerned in the solvent in question. […] Piroxicam ([…]) has a “U”-shaped pH solubility curve with a minimum around pH 3.5. […] A further advantage arising out of the reduced solubility of Piroxicam is reduced formation of the hydrate which has a bright yellow color.", "data": [{"smiles": "CN1C(C(=O)Nc2ccccn2)=C(O)c2ccccc2S1(=O)=O", "note": "[Piroxicam]", "values": [{"measurement": "pH of minimum of the U-shaped pH solubility curve", "result": "~3.5"}, {"measurement": "change in solubility on pH adjustment", "setting": "pH adjusted from about 6.5 to approximately 4.0 by addition of an acid such as citric acid", "result": "approximately tenfold decrease in solubility"}]}]}
